Measured values from patent US10493061B2, “Compositions and methods comprising 2-(acylamino)imidazoles” (priority 2014, dated 2019).

Key:
[1] = test system: mouse metallothionein expression (MT1 and MT2) in renal and hepatic tissue; test: RT-PCR of metallothionein expression in tissue of treated mice; format: in vivo, FVB/NJ mice; details: ZNA 100 mg/kg intraperitoneal
Procedure: Real-Time PCR (RT-PCR): For experiments designed to measure gene expression, real-time PCR (RT-PCR) was conducted using a LightCycler 480 (Roche, Basel, Switzerland) and KAPA SYBR FAST qPCR Master Mix (Kapa Biosystems, Boston, Mass., USA). […] Genomic DNA was removed with a DNase digest and 1 μg of RNA was used to synthesize cDNA using a Superscript III Reverse Transcriptase kit from Invitrogen per the manufacturer's protocol; after an RNase H digestion, RT-PCR was performed in a 5 μL reaction using KAPA SYBR FAST qPCR Master Mix (Kapa Biosystems, Boston, Mass., USA). […]; Nat Protocols 2008; 3(6):1101-08. For tissue derived from mouse in vivo experiments, fresh tissue was homogenized using a TissueLyser II for 3 minutes at 30 Hz before isolating RNA.
The next experiment established the relevancy of the biological pathways targeted by ZNA in a whole organism tumor model. To establish bioactivity, the response of normal tissue to ZNA was evaluated. Non-tumor bearing FVB/NJ mice were treated with ZNA (at 100 mg/kg administered via intraperitoneal injection) or a control for either 3 or 24 hours. RT-PCR was used to assess mouse metallothionein expression (MT1 and MT2) in renal and hepatic tissue from the treated mice.

[2] = test system: cancer cells (malignant cell types tested); test: Clonogenic cell survival assay; details: 24 hours ZNA, then three weeks of growth, crystal violet
Procedure: Clonogenic cell survival assays were conducted as described in Franken NAP, Rodermond H M, Stap J, Haveman J, van Bree C.
Further experiments were also conducted to assess the effects of short-term ZNA treatment on long-term cell survival and proliferation. Cells were treated for 24 hours with ZNA then cultured in the absence of the small molecule; following three weeks of growth, colonies were stained with crystal violet and quantified (FIG. 1D).

MCF-10A cells = test: Cellular proliferation, EdU incorporation assay; format: cell-based, human; details: ZNA/ZnSO4, 6 hours
[3] = Isothermal titration calorimetry of the small molecule with zinc or copper; format: binding; details: ITC, data not shown
[4] = test system: hTERT-HMEC normal mammary epithelial cells; test: Dose response, ATP cell viability assay; format: cell-based, human
LC3 in MCF-10A cells = test: Western blot of autophagosome-associated protein LC3A/B; format: cell-based, human
Procedure: Western blot analysis: For analysis of protein expression by Western blot analysis, the procedure set forth in Gligorich et al. was used. Gligorich K, Vaden R, Shelton D, Wang G, Matsen C, Looper R, et al. Development of a screen to identify selective small molecules active against patient-derived metastatic and chemoresistant breast cancer cells. Breast Cancer Res 2013; 15(4):R58. The cells were cultured and treated in 10-cm plates. Cells were harvested in cold radioimmunoprecipitation assay (RIPA) buffer (50 mM Tris-HCl, 150 mM NaCl, 0.1% sodium dodecyl sulfate (SDS), 0.5% sodium deoxycholate, and 1% Triton X-100) supplemented with protease and phosphatase inhibitors (Sigma). Protein concentration was measured using a BCA assay (Thermo Scientific) and […] of protein was resolved by gel electrophoresis using an SDS polyacrylamide gel. Protein was transferred to an Immobilon-FL PVDF membrane (Millipore, Billerica, Mass., USA) and the membrane was blocked for 1 hour at room temperature with Odyssey blocking buffer (Li—COR). […]
Further cell death characterization studies were also conducted to establish the role of autophagy in ZNA-mediated cell death. To assess the level of autophagic induction following treatment with ZNA, levels of the autophagosome-associated protein LC3A/B were measured by western blot analysis. […]

[5] = test system: MCF-10A normal mammary epithelial cell line; test: Dose response, luciferase-based ATP (ATPlite) viability assay; format: cell-based, human; details: five days of treatment
[6] = test system: metal trafficking genes in MCF-7, T47D, MDA-MB-231 and MCF-10A cells; test: Real-time PCR of metal trafficking genes; format: cell-based, human; details: 30 μM ZNA, 3 or 24 hours, four cell lines
Procedure: Real-Time PCR (RT-PCR): For experiments designed to measure gene expression, real-time PCR (RT-PCR) was conducted using a LightCycler 480 (Roche, Basel, Switzerland) and KAPA SYBR FAST qPCR Master Mix (Kapa Biosystems, Boston, Mass., USA). […] Genomic DNA was removed with a DNase digest and 1 μg of RNA was used to synthesize cDNA using a Superscript III Reverse Transcriptase kit from Invitrogen per the manufacturer's protocol; after an RNase H digestion, RT-PCR was performed in a 5 μL reaction using KAPA SYBR FAST qPCR Master Mix (Kapa Biosystems, Boston, Mass., USA). The following primer sets were used: MT1F 5′-[…] -3′ (SEQ ID NO:1) and 5′-[…] -3′ (SEQ ID NO:2); MT1X 5′-[…] -3′ (SEQ ID NO:3) and 5′-[…] -3′ (SEQ ID NO:4); MT2A 5′-[…] -3′ (SEQ ID NO:5) and 5′-[…] -3′ (SEQ ID NO:6); SLC30A2 5′-[…] -3′ (SEQ ID NO:7) and 5′-[…] -3′ (SEQ ID NO:8); SLC30A1 5′-[…] -3′ (SEQ ID NO:9) and 5′-[…] -3′ (SEQ ID NO:10). Data were normalized to an internal reference gene (GAPDH 5′-[…] -3′ (SEQ ID NO:11) and 5′-[…] -3′ (SEQ ID NO:12)) and relative gene expression was assessed using the comparative CT method set forth in Schmittgen T D, Livak K J. Analyzing real-time PCR data by the comparative CT method. Nat Protocols 2008; 3(6):1101-08. For tissue derived from mouse in vivo experiments, fresh tissue was homogenized using a TissueLyser II for 3 minutes at 30 Hz before isolating RNA. […]

Question: For COc1ccc(-c2c(Cc3ccccc3)[nH]/c(=N\C(=O)c3ccccc3F)n2C)cc1 [ZNA, (E)-N-(4-benzyl-5-(4-methoxyphenyl)-1-methyl-1H-imidazol-2(3H)-ylidene)-2-fluorobenzamide], which “MT1 and MT2 expression” value ([1]; 3 hours, vs control treated mice) is on record?
Answer: Its value is “increased”.

Question: And the “MT1 and MT2 expression” value ([1]; 24 hours)?
Answer: The value was “decreased”.

Question: And the “long-term proliferative potential (colonies)” value [2]?
Answer: Its value is “significantly affected long-term proliferative potential”.

Question: And the “proliferation (EdU)” value (MCF-10A cells)?
Answer: Its value is “somewhat affected”.

Question: And the “direct interaction with zinc or copper” value [3]?
Answer: The value was “no evidence to suggest direct binding”.

Question: And the cell viability [4]?
Answer: The cell viability was “largely unaffected”.

Question: What about the LC3 protein (LC3 in MCF-10A cells; 30 μM ZNA with 30 μM ZnSO4, 6 hours) of the same compound?
Answer: Its LC3 protein is “significant increases were not observed”.

Question: What about the LC3 level (LC3 in MCF-10A cells; ZNA alone, 48 and 72 hours) of the same compound?
Answer: The LC3 level was “only in the cancer cell lines”.

Question: What about the cell viability [5] of the same compound?
Answer: Its cell viability is “largely unaffected”.

Question: And the “transcription of metal trafficking genes” value [6]?
Answer: Its value is “stimulated transcriptional increases”.
